The target of data set [1] is 5-hydroxytryptamine receptor 6 (Homo sapiens, UniProt P50406). Nature of the data set: Displacement of [3H]lysergic acid diethylamide from human recombinant 5-HT6 receptor expressed in CHO cell membranes for 30 mins by liquid scintillation counting analysis. On the technique in general: Loss of bound radioactivity is the signal in a displacement assay; it reports binding, not function.

Data set [2] deals with T1, 5-hydroxytryptamine receptor 2C (Rattus norvegicus, UniProt P08909).
T1 sequence (P08909 whole entry): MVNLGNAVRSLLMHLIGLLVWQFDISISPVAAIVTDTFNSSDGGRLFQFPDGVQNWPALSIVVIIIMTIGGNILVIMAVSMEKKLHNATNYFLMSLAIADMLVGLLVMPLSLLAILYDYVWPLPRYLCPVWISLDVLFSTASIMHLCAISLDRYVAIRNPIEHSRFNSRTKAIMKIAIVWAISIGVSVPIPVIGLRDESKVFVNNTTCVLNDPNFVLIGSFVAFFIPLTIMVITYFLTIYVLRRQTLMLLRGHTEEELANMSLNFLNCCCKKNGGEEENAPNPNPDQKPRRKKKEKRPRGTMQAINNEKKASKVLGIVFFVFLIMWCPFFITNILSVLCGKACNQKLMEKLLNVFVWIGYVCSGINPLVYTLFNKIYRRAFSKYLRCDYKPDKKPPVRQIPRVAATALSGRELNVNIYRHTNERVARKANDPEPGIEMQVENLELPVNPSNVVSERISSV
Nature of the data set: Displacement of [3H]mesulergine from 5-HT2C receptor in Sprague-Dawley rat cerebral cortex incubated for 15 mins in presence of spiperone by liquid scintillation counting analysis.

Data set [3] has as its target D(2) dopamine receptor (Rattus norvegicus, UniProt P61169). As to the kind of experiment: Displacement of [3H]spiperone from dopamine D2 receptor in Sprague-Dawley rat striatum incubated for 30 mins by liquid scintillation counting analysis.
Data set [4] concerns the target T2, 5-hydroxytryptamine receptor 1A (Rattus norvegicus, UniProt P19327).
T2 sequence (P19327 whole entry): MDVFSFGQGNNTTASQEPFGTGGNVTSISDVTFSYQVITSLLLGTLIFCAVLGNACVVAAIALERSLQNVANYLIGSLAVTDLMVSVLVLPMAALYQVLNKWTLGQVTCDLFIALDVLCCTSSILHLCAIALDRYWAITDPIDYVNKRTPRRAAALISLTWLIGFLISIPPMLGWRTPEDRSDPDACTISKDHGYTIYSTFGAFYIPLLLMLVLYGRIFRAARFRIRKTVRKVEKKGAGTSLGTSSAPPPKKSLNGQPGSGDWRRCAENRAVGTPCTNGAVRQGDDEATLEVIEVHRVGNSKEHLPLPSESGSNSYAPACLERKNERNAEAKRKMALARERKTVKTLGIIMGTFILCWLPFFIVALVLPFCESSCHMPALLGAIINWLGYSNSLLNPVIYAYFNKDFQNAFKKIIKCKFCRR
Nature of the data set: Displacement of [3H]8-OH-DPAT from 5-HT1A receptor in Sprague-Dawley rat cerebral cortex incubated for 30 mins by liquid scintillation counting analysis.

For data set [5], the target named is 5-hydroxytryptamine receptor 2A (Rattus norvegicus, UniProt P14842). As to the kind of experiment: Displacement of [3H] ketanserin from 5-HT2A receptor in Sprague-Dawley rat cerebral cortex incubated for 30 mins by liquid scintillation counting analysis.
Sequence of 5-hydroxytryptamine receptor 2A (P14842 whole entry): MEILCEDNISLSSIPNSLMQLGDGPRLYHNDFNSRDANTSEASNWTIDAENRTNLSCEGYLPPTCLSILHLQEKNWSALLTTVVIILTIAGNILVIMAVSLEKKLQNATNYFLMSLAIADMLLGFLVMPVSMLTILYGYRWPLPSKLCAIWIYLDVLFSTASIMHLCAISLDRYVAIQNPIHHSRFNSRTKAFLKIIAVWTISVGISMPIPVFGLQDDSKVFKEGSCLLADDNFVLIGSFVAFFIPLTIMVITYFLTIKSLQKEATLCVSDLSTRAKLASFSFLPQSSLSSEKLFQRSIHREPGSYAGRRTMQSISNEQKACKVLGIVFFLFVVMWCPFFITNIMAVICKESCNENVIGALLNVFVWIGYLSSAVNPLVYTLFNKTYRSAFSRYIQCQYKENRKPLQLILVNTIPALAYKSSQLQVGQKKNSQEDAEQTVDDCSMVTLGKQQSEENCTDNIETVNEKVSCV
The target of data set [6] is Histamine H1 receptor (Cavia porcellus, UniProt P31389). As to the kind of experiment: Displacement of [3H]mepyramine from histamine H1 receptor in guinea pig cerebellum incubated for 60 mins by liquid scintillation counting analysis.
Sequence of Histamine H1 receptor (P31389 whole entry): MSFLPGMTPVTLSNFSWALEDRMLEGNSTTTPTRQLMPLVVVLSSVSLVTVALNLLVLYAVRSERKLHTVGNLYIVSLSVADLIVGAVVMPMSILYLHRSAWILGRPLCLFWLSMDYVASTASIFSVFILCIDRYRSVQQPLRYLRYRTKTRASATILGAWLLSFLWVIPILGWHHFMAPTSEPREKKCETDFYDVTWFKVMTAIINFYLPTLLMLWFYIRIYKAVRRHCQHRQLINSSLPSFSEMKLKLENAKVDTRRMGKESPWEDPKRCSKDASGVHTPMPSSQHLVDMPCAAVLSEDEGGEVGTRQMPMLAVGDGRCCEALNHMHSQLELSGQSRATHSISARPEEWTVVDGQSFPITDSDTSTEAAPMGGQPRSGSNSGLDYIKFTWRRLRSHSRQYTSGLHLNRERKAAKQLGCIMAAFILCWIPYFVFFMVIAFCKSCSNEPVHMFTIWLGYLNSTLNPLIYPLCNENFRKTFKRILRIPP
In data set [7] the target is T3, Adrenergic receptor alpha-1 (Rattus norvegicus, UniProt P15823+P23944+P43140).
T3 sequence (P15823 whole entry): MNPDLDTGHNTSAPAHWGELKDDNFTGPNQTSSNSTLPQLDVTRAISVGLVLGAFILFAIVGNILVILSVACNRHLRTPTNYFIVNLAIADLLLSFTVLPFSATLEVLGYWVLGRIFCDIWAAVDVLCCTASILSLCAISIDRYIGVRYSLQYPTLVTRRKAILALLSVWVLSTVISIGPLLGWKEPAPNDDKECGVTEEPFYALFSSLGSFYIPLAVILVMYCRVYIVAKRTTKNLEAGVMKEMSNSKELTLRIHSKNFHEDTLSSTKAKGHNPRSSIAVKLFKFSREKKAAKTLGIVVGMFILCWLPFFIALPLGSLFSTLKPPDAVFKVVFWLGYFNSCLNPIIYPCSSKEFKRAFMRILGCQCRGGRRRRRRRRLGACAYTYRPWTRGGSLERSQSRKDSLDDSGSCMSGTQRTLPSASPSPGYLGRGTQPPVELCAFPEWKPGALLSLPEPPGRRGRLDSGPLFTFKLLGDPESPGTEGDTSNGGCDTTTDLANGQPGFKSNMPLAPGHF
T3 sequence (P23944 whole entry): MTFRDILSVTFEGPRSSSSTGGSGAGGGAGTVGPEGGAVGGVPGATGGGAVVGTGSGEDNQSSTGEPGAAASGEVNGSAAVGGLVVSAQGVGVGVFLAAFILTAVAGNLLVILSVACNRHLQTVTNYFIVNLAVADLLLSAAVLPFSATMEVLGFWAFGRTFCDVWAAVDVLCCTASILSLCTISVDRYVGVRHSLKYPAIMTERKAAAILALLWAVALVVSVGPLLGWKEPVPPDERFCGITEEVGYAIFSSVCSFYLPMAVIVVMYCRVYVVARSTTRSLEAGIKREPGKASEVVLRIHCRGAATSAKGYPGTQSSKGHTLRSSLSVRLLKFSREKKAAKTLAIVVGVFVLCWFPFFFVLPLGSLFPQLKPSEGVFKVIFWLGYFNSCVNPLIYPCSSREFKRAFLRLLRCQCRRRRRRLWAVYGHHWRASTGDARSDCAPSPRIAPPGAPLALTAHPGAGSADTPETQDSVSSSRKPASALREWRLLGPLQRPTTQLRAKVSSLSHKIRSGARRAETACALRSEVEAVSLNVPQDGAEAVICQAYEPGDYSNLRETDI
T3 sequence (P43140 whole entry): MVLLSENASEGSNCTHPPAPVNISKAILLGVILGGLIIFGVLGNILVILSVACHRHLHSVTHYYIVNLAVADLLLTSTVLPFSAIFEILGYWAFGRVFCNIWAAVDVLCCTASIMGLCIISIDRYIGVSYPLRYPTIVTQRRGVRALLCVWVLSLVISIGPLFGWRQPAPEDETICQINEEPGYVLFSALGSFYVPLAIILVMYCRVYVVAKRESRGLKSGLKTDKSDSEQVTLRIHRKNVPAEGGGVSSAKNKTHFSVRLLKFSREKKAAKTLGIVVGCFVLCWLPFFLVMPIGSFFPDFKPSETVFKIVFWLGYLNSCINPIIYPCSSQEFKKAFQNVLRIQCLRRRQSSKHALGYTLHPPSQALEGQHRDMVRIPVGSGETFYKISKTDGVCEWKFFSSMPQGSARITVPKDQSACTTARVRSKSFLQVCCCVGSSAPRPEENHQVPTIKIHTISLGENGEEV
As to the kind of experiment: Displacement of [3H]prazosin from adrenergic alpha1 receptor in Sprague-Dawley rat cerebral cortex incubated for 60 mins by liquid scintillation counting analysis.

The nature of data set [8]: Toxicity in po dosed Chinese Kun Ming mouse assessed as lethality after 24 hrs. The format is organism-based. The following applies: in vivo.
The subject of data set [9] is Mus musculus. As to the kind of experiment: Inhibition of MK-801 induced hyperactivity in po dosed Chinese Kun Ming mouse administered for 60 mins followed by MK-801 challenge and measured for 90 mins. Format: functional.
The subject of data set [10] is Mus musculus. Nature of the data set: Inhibition of apomorphine-induced climbing behavior in po dosed Chinese Kun Ming mouse administered for 30 mins followed by apomorphine challenge and measured for 10 to 30 mins. The format is functional.
Data set [11] can be described thus: Induction of catalepsy in po dosed Chinese Kun Ming mouse assessed as increase in unwanted extrapyramidal motor disturbances measured for 60 seconds. The following applies: in vivo, 1 min. The format is organism-based.
A short description of data set [12]: Therapeutic index, ratio of ED50 for induction of catalepsy in po dosed Chinese Kun Ming mouse to ED50 for inhibition of apomorphine-induced climbing behavior in po dosed Chinese Kun Ming mouse. The format is organism-based. To be noted: in vivo, read-out: Ratio ED50.
The nature of data set [13]: Therapeutic index, ratio of ED50 for induction of catalepsy in po dosed Chinese Kun Ming mouse to ED50 for inhibition of MK-801 induced hyperactivity in po dosed Chinese Kun Ming mouse. The format is organism-based. To be noted: in vivo, read-out: Ratio ED50.

SMILES strings stand for the structures.

The Ki is the equilibrium dissociation constant of an inhibitor or competing ligand from its target. Usually LD50 stands for the dose at which mortality reaches 50%. As a reminder, the ED50 is the dose at which the effect has come halfway, by size or by number of responders.

Sequence of D(2) dopamine receptor (P61169 whole entry): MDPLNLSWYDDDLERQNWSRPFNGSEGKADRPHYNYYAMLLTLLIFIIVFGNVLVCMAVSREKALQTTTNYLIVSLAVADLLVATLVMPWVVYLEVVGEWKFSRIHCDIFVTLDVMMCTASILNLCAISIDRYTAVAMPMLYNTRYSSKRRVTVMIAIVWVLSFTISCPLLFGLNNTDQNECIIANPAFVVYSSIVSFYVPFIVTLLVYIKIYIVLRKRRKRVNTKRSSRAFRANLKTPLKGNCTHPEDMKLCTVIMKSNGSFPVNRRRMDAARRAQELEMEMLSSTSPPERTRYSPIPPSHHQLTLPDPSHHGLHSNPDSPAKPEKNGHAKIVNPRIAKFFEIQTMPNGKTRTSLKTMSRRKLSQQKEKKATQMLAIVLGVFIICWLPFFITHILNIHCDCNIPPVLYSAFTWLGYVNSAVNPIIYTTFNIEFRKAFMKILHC
Sequence of 5-hydroxytryptamine receptor 6 (P50406 whole entry): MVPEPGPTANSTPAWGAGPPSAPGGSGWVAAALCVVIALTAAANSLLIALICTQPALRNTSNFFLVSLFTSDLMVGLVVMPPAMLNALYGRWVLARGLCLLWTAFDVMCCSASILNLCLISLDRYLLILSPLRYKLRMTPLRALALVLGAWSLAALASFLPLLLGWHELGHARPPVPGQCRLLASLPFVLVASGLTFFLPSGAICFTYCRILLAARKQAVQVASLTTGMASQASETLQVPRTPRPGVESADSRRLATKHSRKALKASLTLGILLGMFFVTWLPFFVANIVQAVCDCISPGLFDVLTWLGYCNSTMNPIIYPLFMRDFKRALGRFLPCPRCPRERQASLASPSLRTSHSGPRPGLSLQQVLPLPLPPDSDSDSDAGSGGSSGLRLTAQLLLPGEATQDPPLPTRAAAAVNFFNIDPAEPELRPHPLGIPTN

Regarding `O=c1ccc(OCCCN2CCC(c3noc4cc(F)ccc34)CC2)nn1-c1c(F)cccc1F`, the Ki in data set [1] came to 0.5 nM; in [2] it was 1580 nM; in [3] it was 0.5 nM; in [4], 5.9 nM; in data set [5], 0.3 nM; in data set [6], 2000 nM. The Ki in data set [7] turned out to be 1098 nM. For the same compound, the LD50 at 24 h in data set [8] was over 2000 mg/kg. The figures for the ED50 in [9], in data set [10] and in data set [11] were 0.3 mg/kg, 0.47 mg/kg and 23.82 mg/kg, respectively. Moreover, the selectivity ratio in data set [12] was determined as 50.7; in data set [13], 79.4.

In the case of `O=c1ccc(OCCCN2CCC(c3noc4cc(F)ccc34)CC2)nn1-c1cc(Cl)ccc1Cl`, the Ki was found to be 11.7 nM in data set [1]; 1 nM in [2]; 2.7 nM in data set [3]; 0.7 nM in data set [5]; 186 nM in data set [6]; 147 nM in data set [7].

`O=c1ccc(OCCCN2CCC(c3noc4cc(F)ccc34)CC2)nn1-c1cc(F)ccc1F`: the Ki came out at 3.8 nM in data set [1]; 9.1 nM in [2]; 6.1 nM in data set [3]; 9 nM in data set [4]; 11.2 nM in data set [5]; 115 nM in data set [6]. Further, in data set [7], the Ki was determined as 337 nM.

As for `O=c1ccc(OCCCN2CCC(c3noc4cc(F)ccc34)CC2)nn1-c1cccc(Cl)c1Cl`, the Ki came out at 113 nM in data set [1]; 177 nM in data set [2]; 0.2 nM in data set [3]; 9.3 nM in [4]; 0.5 nM in [5]; 16.6 nM in data set [6]. Besides, the Ki in [7] was determined as 118 nM.

Consider `O=C(CCCN1CCC(O)(c2ccc(Cl)cc2)CC1)c1ccc(F)cc1` [HALOPERIDOL], for which the ED50 amounted to 0.19 mg/kg in data set [9], 0.18 mg/kg in [10] and 0.56 mg/kg in [11]. For the same compound, the values for the selectivity ratio in data set [12] and in data set [13] were 3.11 and 2.95, respectively.

For the compound `Cc1nc2n(c(=O)c1CCN1CCC(c3noc4cc(F)ccc34)CC1)CCCC2` [RISPERIDONE], the median effective dose (ED50) in [9] stood at 0.018 mg/kg; in [10], 0.02 mg/kg; in data set [11] it was 0.38 mg/kg.

The values are drawn from ChEMBL document CHEMBL3875166, “Synthesis and biological evaluation of new 6-hydroxypyridazinone benzisoxazoles: Potential multi-receptor-targeting atypical antipsychotics” (Eur J Med Chem, 2016).
